Experimental data as given in patent publication US8999957B2, “Heterocyclic compounds as ERK inhibitors” (Merck Sharp & Dohme Corp., priority 2010, dated 2015).

Each compound was assayed against fully phosphorylated, mouse aERK2 enzyme (Mus musculus (Mouse), UniProt P63085) (assay: Active ERK2 (aERK) IMAP-FP assay, condition 2). Details: aERK assay condition 2, 30 uM ATP; read-out: aERK IC50.
Type: biochemical
Procedure: Active ERK2 (aERK) Assay: (Unless Indicated Otherwise, the Data Provided for aERK was obtained using Condition 1)
Activated ERK2 activity was determined in an IMAP-FP assay (Molecular Devices). […] Phosphorylation reactions were allowed to proceed for 40-45 minutes and were immediately quenched by the addition of 60 μL IMAP detection beads (1:1000 dilutions) in IMAP binding buffer. Plates were read on EnVision reader after 30 minutes binding equilibration.

Chain of fully phosphorylated, mouse aERK2 enzyme (P63085 whole entry): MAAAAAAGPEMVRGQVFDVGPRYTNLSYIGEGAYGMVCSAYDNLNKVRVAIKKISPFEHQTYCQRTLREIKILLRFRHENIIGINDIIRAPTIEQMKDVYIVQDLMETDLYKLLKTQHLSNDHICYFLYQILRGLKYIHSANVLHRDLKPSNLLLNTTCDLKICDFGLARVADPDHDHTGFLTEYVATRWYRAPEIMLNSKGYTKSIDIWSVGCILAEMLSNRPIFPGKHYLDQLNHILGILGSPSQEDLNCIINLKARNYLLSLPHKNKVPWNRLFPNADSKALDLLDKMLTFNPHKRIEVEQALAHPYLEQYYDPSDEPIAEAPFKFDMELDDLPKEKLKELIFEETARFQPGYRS

Compound	IC50
COc1cccc(F)c1CN1C[C@H](NC(=O)c2ccc3[nH]nc(-c4ccnc(C)c4)c3c2)CC[C@H]1C(=O)NC[C@H]1CC[C@H](O)C1 [N-[(3R,6S)-1-(2-fluoro-6-methoxybenzyl)-6-({[(1S,3S)-3-hydroxycyclopentyl]methyl}carbamoyl)piperidin-3-yl]-3-(2-methylpyridin-4-yl)-1H-indazole-5-carboxamide]	1.3 nM
COc1cccc(F)c1CN1C[C@H](NC(=O)c2ccc3[nH]nc(-c4ccnc(C)c4)c3c2)CC[C@H]1C(=O)NC1CC1 [N-[(3R,6S)-6-(cyclopropylcarbamoyl)-1-(2-fluoro-6-methoxybenzyl)piperidin-3-yl]-3-(2-methylpyridin-4-yl)-1H-indazole-5-carboxamide]	3.4 nM
COc1cccc(F)c1CN1C[C@H](NC(=O)c2ccc3[nH]nc(-c4ccnc(C)c4)c3c2)CC[C@H]1C(=O)Nc1ccc(C)cc1C [N-[(3R,6S)-6-[(2,4-dimethylphenyl)carbamoyl]-1-(2-fluoro-6-methoxybenzyl)piperidin-3-yl]-3-(2-methylpyridin-4-yl)-1H-indazole-5-carboxamide]	54.8 nM

Same assay, conditions: active ERK2; read-out: aErk2 Ic50

Compound	IC50
CNC(=S)NNC(=O)[C@@H]1CC[C@@H](NC(=O)c2ccc3[nH]nc(-c4ccnc(C)c4)c3c2)CN1Cc1c(F)cccc1OC [N-[(3R,6S)-1-(2-fluoro-6-methoxybenzyl)-6-{[2-(methylcarbamothioyl)hydrazino]-carbonyl}piperidin-3-yl]-3-(2-methylpyridin-4-yl)-1H-indazole-5-carboxamide]	1 nM
O=C(N[C@@H]1CC[C@@H](C(=O)NCc2ccccc2)N(Cc2ccccc2)C1)c1ccc2[nH]nc(-c3ccncc3)c2c1 [N-[(3R,6S)-1-benzyl-6-(benzylcarbamoyl)piperidin-3-yl]-3-pyridin-4-yl-1H-indazole-5-carboxamide]	47.5 nM
CCNC(=O)[C@@H]1CC[C@@H](NC(=O)c2ccc3[nH]nc(-c4ccncc4)c3c2)CN1Cc1ccccc1 [N-[(3R,6S)-1-benzyl-6-(ethylcarbamoyl)-piperidin-3-yl]-3-pyridin-4-yl-1H-indazole-5-carboxamide]	48.3 nM
COc1cccc(F)c1CN1C[C@H](NC(=O)c2ccc3[nH]nc(-c4ccnc(C)c4)c3c2)CC[C@H]1C(=O)N1CCC1 [N-[(3R,6S)-6-(azetidin-1-ylcarbonyl)-1-(2-fluoro-6-methoxybenzyl)piperidin-3-yl]-3-(2-methylpyridin-4-yl)-1H-indazole-5-carboxamide]	34.9 nM
CCCCN(CCCC)C(=O)[C@@H]1CC[C@@H](NC(=O)c2ccc3[nH]nc(-c4ccnc(C)c4)c3c2)CN1Cc1c(F)cccc1OC [N-[(3R,6S)-6-(dibutylcarbamoyl)-1-(2-fluoro-6-methoxybenzyl)piperidin-3-yl]-3-(2-methylpyridin-4-yl)-1H-indazole-5-carboxamide]	502 nM
CCN(CC)C(=O)[C@@H]1CC[C@@H](NC(=O)c2ccc3[nH]nc(-c4ccnc(C)c4)c3c2)CN1Cc1c(F)cccc1F [N-[(3R,6S)-6-(diethylcarbamoyl)-1-(2,6-difluorobenzyl)piperidin-3-yl]-3-(2-methylpyridin-4-yl)-1H-indazole-5-carboxamide]	80.7 nM
CCN(CC)C(=O)[C@@H]1CC[C@@H](NC(=O)c2ccc3[nH]nc(-c4ccc5nc(C)sc5c4)c3c2)CN1Cc1c(F)cccc1OC [N-[(3R,6S)-6-(diethylcarbamoyl)-1-(2-fluoro-6-methoxybenzyl)piperidin-3-yl]-3-(2-methyl-1,3-benzothiazol-6-yl)-1H-indazole-5-carboxamide]	32.9 nM
CCN(CC)C(=O)[C@@H]1CC[C@@H](NC(=O)c2ccc3[nH]nc(-c4ccnc(C)c4)c3c2)CN1Cc1c(F)cccc1OC [N-[(3R,6S)-6-(diethylcarbamoyl)-1-(2-fluoro-6-methoxybenzyl)piperidin-3-yl]-3-(2-methylpyridin-4-yl)-1H-indazole-5-carboxamide]	16.2 nM
CCN(CC)C(=O)[C@@H]1CC[C@@H](NC(=O)c2ccc3[nH]nc(-c4ccnnc4)c3c2)CN1Cc1c(F)cccc1OC [N-[(3R,6S)-6-(diethylcarbamoyl)-1-(2-fluoro-6-methoxybenzyl)piperidin-3-yl]-3-pyridazin-4-yl-1H-indazole-5-carboxamide]	137 nM
CCN(CC)C(=O)[C@@H]1CC[C@@H](NC(=O)c2ccc3[nH]nc(-c4ccncc4)c3c2)CN1Cc1c(F)cccc1OC [N-[(3R,6S)-6-(diethylcarbamoyl)-1-(2-fluoro-6-methoxybenzyl)piperidin-3-yl]-3-pyridin-4-yl-1H-indazole-5-carboxamide]	18.4 nM
CCN(CC)C(=O)[C@@H]1CC[C@@H](NC(=O)c2ccc3[nH]nc(-c4ccnc(C)c4)c3c2)CN1Cc1ccccc1F [N-[(3R,6S)-6-(diethylcarbamoyl)-1-(2-fluorobenzyl)piperidin-3-yl]-3-(2-methylpyridin-4-yl)-1H-indazole-5-carboxamide]	20.1 nM
CCN(CC)C(=O)[C@@H]1CC[C@@H](NC(=O)c2ccc3[nH]nc(-c4ccnc(C)c4)c3c2)CN1CCc1ccccc1 [N-[(3R,6S)-6-(diethylcarbamoyl)-1-(2-phenylethyl)piperidin-3-yl]-3-(2-methylpyridin-4-yl)-1H-indazole-5-carboxamide]	158 nM
COc1cccc(F)c1CN1C[C@H](NC(=O)c2ccc3[nH]nc(-c4ccc5nc(C)sc5c4)c3c2)CC[C@H]1C(=O)N(C)C [N-[(3R,6S)-6-(dimethylcarbamoyl)-1-(2-fluoro-6-methoxybenzyl)piperidin-3-yl]-3-(2-methyl-1,3-benzothiazol-6-yl)-1H-indazole-5-carboxamide]	48 nM
COc1cccc(F)c1CN1C[C@H](NC(=O)c2ccc3[nH]nc(-c4ccnc(C)c4)c3c2)CC[C@H]1C(=O)N(C)C [N-[(3R,6S)-6-(dimethylcarbamoyl)-1-(2-fluoro-6-methoxybenzyl)piperidin-3-yl]-3-(2-methylpyridin-4-yl)-1H-indazole-5-carboxamide]	37.8 nM
COc1cccc(F)c1CN1C[C@H](NC(=O)c2ccc3[nH]nc(-c4ccnnc4)c3c2)CC[C@H]1C(=O)N(C)C [N-[(3R,6S)-6-(dimethylcarbamoyl)-1-(2-fluoro-6-methoxybenzyl)piperidin-3-yl]-3-pyridazin-4-yl-1H-indazole-5-carboxamide]	137 nM
COc1cccc(F)c1CN1C[C@H](NC(=O)c2ccc3[nH]nc(-c4ccncc4)c3c2)CC[C@H]1C(=O)N(C)C [N-[(3R,6S)-6-(dimethylcarbamoyl)-1-(2-fluoro-6-methoxybenzyl)piperidin-3-yl]-3-pyridin-4-yl-1H-indazole-5-carboxamide]	18.2 nM
Cc1cc(-c2n[nH]c3ccc(C(=O)N[C@@H]4CC[C@@H](C(=O)N(C)C)N(Cc5ccccc5F)C4)cc23)ccn1 [N-[(3R,6S)-6-(dimethylcarbamoyl)-1-(2-fluorobenzyl)piperidin-3-yl]-3-(2-methylpyridin-4-yl)-1H-indazole-5-carboxamide]	39.4 nM
Cc1cc(-c2n[nH]c3ccc(C(=O)N[C@@H]4CC[C@@H](C(=O)N(C)C)N(CCc5ccccc5)C4)cc23)ccn1 [N-[(3R,6S)-6-(dimethylcarbamoyl)-1-(2-phenylethyl)piperidin-3-yl]-3-(2-methylpyridin-4-yl)-1H-indazole-5-carboxamide]	131 nM
Cc1cc(-c2n[nH]c3ccc(C(=O)N[C@@H]4CC[C@@H](C(=O)N(C)C)N(Cc5cccs5)C4)cc23)ccn1 [N-[(3R,6S)-6-(dimethylcarbamoyl)-1-(thiophen-2-ylmethyl)piperidin-3-yl]-3-(2-methylpyridin-4-yl)-1H-indazole-5-carboxamide]	14.4 nM
CCCN(CCC)C(=O)[C@@H]1CC[C@@H](NC(=O)c2ccc3[nH]nc(-c4ccnc(C)c4)c3c2)CN1Cc1c(F)cccc1OC [N-[(3R,6S)-6-(dipropylcarbamoyl)-1-(2-fluoro-6-methoxybenzyl)piperidin-3-yl]-3-(2-methylpyridin-4-yl)-1H-indazole-5-carboxamide]	141 nM
COc1cccc(F)c1CN1C[C@H](NC(=O)c2ccc3[nH]nc(-c4ccnc(C)c4)c3c2)CC[C@H]1C(=O)NOC(C)(C)C [N-[(3R,6S)-6-(tert-butoxycarbamoyl)-1-(2-fluoro-6-methoxybenzyl)piperidin-3-yl]-3-(2-methylpyridin-4-yl)-1H-indazole-5-carboxamide]	26.2 nM
COc1cccc(F)c1CN1C[C@H](NC(=O)c2ccc3[nH]nc(-c4ccnc(C)c4)c3c2)CC[C@H]1C(=O)NN(C)C [N-[(3R,6S)-6-[(2,2-dimethylhydrazino)-carbonyl]-1-(2-fluoro-6-methoxybenzyl)-piperidin-3-yl]-3-(2-methylpyridin-4-yl)-1H-indazole-5-carboxamide]	12.2 nM
COc1cccc(F)c1CN1C[C@H](NC(=O)c2ccc3[nH]nc(-c4ccnc(C)c4)c3c2)CC[C@H]1C(=O)NCCF [N-[(3R,6S)-6-[(2-fluoroethyl)carbamoyl]-1-(2-fluoro-6-methoxybenzyl)piperidin-3-yl]-3-(2-methylpyridin-4-yl)-1H-indazole-5-carboxamide]	9 nM
Cc1cc(-c2n[nH]c3ccc(C(=O)N[C@@H]4CC[C@@H](C(=O)N5CC(F)(F)C5)N(Cc5c(F)cccc5F)C4)cc23)ccn1 [N-[(3R,6S)-6-[(3,3-difluoroazetidin-1-yl)carbonyl]-1-(2,6-difluorobenzyl)piperidin-3-yl]-3-(2-methylpyridin-4-yl)-1H-indazole-5-carboxamide]	96.5 nM
COc1cccc(F)c1CN1C[C@H](NC(=O)c2ccc3[nH]nc(-c4ccc5nc(C)sc5c4)c3c2)CC[C@H]1C(=O)N1CC(F)(F)C1 [N-[(3R,6S)-6-[(3,3-difluoroazetidin-1-yl)carbonyl]-1-(2-fluoro-6-methoxybenzyl)-piperidin-3-yl]-3-(2-methyl-1,3-benzothiazol-6-yl)-1H-indazole-5-carboxamide]	47.4 nM
